Key:
[1] = tested on: male mice of the ddY strain; assay: Hypoglycaemic activity in mice after glucose loading; format: in vivo; settings: Mus musculus, po, 0.5 h; blood sugar concentration vs positive control group; 10 mg/kg orally, 1.2 g/kg D-glucose orally 10 minutes later, blood collected 30 minutes after D-glucose; groups of 6 mice; read-out: Inhibitory rate, R%
Description: In this experiment, the hypoglycaemic activity of various of the compounds of the invention was measured in mice after loading a large quantity of glucose. The test animals were male mice of the ddY strain having a body weight of from 25 to 27 g. Each experiment was carried out on a group of 6 mice.
Each test compound was administered orally in an amount of 10 mg/kg to the mouse followed, 10 minutes later, by the oral administration of 1.2 g/kg of D-glucose. 30 minutes after administration of the D-glucose, blood was collected from each mouse and the blood sugar.concentration was measured using a commercially available kit ("New Blood Sugar Test", a product of Boehringer-Mannheim Yamanouchi Pharmaceutical Co. Ltd,). The inhibitory rate, R, was calculated from the following formula: [formula] in which A represents the blood sugar concentration of a positive control group and B represents the blood sugar concentration of the group to which the test compound was administered. As a control, the experiment was also carried out with: the known hypoglycaemic agent, tolbutamide; 2-(2-aminoethylamino)-4-morpholinothieno[2,3-d]pyrimidine (named "VK-744"), a compound disclosed in German Offenlegungsschrift No. 2,200,764; and 4-isopropylamino-2-piperidinothieno[2,3-d]-pyrimidine (hereinafter referred to as "ICI-154"), a compound disclosed in U.S. Patent Specification No. 4,146,716.

platelet aggregation = assay: Inhibition of collagen-induced platelet aggregation in platelet-rich plasma; format: cell-based; settings: rabbit PRP, incubated 2 minutes, collagen 5 ug/ml
Description: The ability of various compounds of the present invention to inhibit platelet aggregation was measured using rabbit blood.
9 volumes of blood collected from male rabbit hearts and 1 volume of a 3.8% w/v aqueous solution of sodium citrate were mixed, placed in a centrifugal separator and subjected to centrifugation under 150 G for 15 minutes to give a platelet-rich-plasma (PRP). 250 pl of this PRP were placed in a cuvette and incubated for 2 minutes with a test compound at the concentration shown in Table 2. To the mixture was then added a collagen solution to a final concentration of 5 ug/ml, to induce aggregation. The aggregation was measured using an aggregometer produced by Rikadenki Co. Ltd. The inhibitory rate R' was calculated from the following formula: [formula] in which A' represents the maximum aggregation rate when only a solvent was added and B' represents the maximum aggregation rate when the test compound was added.
For comparison, the experiment was also carried out using as the test compound VK-744, of German Offenlegungsschrift No. 2,200,764, and ICI-154 of U.S. Patent Specification No. 4,146,716.

[2] = tested on: male mice of the ddY strain; assay: Diuretic activity in mice (urine volume and sodium ion concentration); format: in vivo; settings: urine collected for 2 hours after administration, increase over control group
Description: The animals employed in this test were male mice of the ddY strain, each having a body weight of from 26 g to 30 g. The mice were employed in groups of five for each test. Each test compound was suspended in a 0.3% carboxymethylcellulose saline solution and administered orally in the dose shown in Table 3 to the mouse. For the period of 2 hours after administration, the urine was collected and the urine volume and concentration of sodium ions were measured. […] The compounds tested were Compound No. 3 of the present invention and hydrochlorothiazide (abbreviated as "HCT").

Row | SMILES | inhibition in vivo at 10 mg/kg [1] [%] | further results
1 | CCc1cc2c(N(CC)CC)nc(N3CCNCC3)nc2s1 [Compound No. 39, 4-Diethylamino-6-ethyl-2-(1-piperazinyl)thieno[2,3-d]-pyrimidine] | 19.4 | 
2 | CCc1cc2c(N(CCO)CCO)nc(N3CCNCC3)nc2s1 [compound 62, 4-Bis(2-hydroxyethyl)amino-6-ethyl-2-(1-piperazinyl)-thieno[2,3-d]pyrimidine] |  | Inhibitory rate, R'% (platelet aggregation; concentration 10^-6 g/ml): 65.3%
3 | CC(C)Nc1nc(N2CCCCC2)nc2sccc12 [ICI-154, 4-isopropylamino-2-piperidinothieno[2,3-d]-pyrimidine, reference compound] | 11 | Inhibitory rate, R'% (platelet aggregation; concentration 10^-4 g/ml): < 50%
4 | CCCCNC(=O)NS(=O)(=O)c1ccc(C)cc1 [tolbutamide, reference compound] | 2.8 | 
5 | CCc1cc2c(NC)nc(N3CCNCC3)nc2s1 [Compound No. 21, 6-Ethyl-4-methylamino-2-(1-piperazinyl)thieno[2,3-d]-pyrimidine] | 20 | 
6 | NS(=O)(=O)c1cc2c(cc1Cl)NCNS2(=O)=O [HCT, hydrochlorothiazide, reference compound] |  | Percent increase in Na^+ conc. ([2]; dose 30 mg/kg orally): +93%; Percent increase in Urine volume ([2]; dose 30 mg/kg orally): +43%
7 | NCCNc1nc(N2CCOCC2)c2ccsc2n1 [VK-744, 2-(2-aminoethylamino)-4-morpholinothieno[2,3-d]pyrimidine, reference compound] | 19 | 
8 | CNc1nc(N2CCNCC2)nc2sccc12 [compound 49, 4-Methylamino-2-(1-piperazinyl)thieno[2,3-d]pyrimidine] | 32 | 
9 | Cc1csc2nc(N3CCNCC3)nc(N)c12 [Compound No. 3, 4-Amino-5-methyl-2-(1-piperazinyl)thieno[2,3-d]-pyrimidine] | 32.4 | Percent increase in Na^+ conc. ([2]; dose 100 mg/kg orally): +51%; Percent increase in Urine volume ([2]; dose 100 mg/kg orally): +76%; Inhibitory rate, R'% (platelet aggregation; concentration 10^-5 g/ml): 82.4%
10 | CCc1cc2c(NCCO)nc(N3CCNCC3)nc2s1 [Compound No. 54, 6-Ethyl-4-(2-hydroxyethylamino)-2-(1-piperazinyl)-thieno[2,3-d]pyrimidine] |  | Inhibitory rate, R'% (platelet aggregation; concentration 10^-6 g/ml): 66.1%
11 | CCc1cc2c(NC)nc(N3CCN(C=O)CC3)nc2s1 [Compound No. 99, 6-Ethyl-2-(4-formyl-1-piperazinyl)-4-methylaminothieno-[2,3-d]pyrimidine] | 22.1 | 
12 | OCCN(CCO)c1nc(N2CCNCC2)nc2sc3c(c12)CCCC3 [Compound No. 197, 4-Bis(2-hydroxyethyl)amino-2-(1-piperazinyl)-5,6-tetramethylenethieno[2,3-d]pyrimidine] |  | Inhibitory rate, R'% (platelet aggregation; concentration 10^-5 g/ml): 87%
13 | CCc1cc2c(N)nc(N3CCNCC3)nc2s1 [Compound No. 8, 4-Amino-6-ethyl-2-(1-piperazinyl)thieno[2,3-d]-pyrimidine] | 34 | 
14 | CCc1cc2c(N)nc(N3CCN(C)CC3)nc2s1 [Compound No. 73, 4-Amino-6-ethyl-2-(4-methyl-1-piperazinyl)thieno-[2,3-d]pyrimidine] | 34.1 | Inhibitory rate, R'% (platelet aggregation; concentration 3 x 10^-5 g/ml): 100%
15 | CCc1cc2c(N)nc(N3CCN(C=O)CC3)nc2s1 [Compound No. 84, 4-Amino-6-ethyl-2-(4-formyl-1-piperazinyl)thieno-[2,3-d]pyrimidine] | 39.3 | 
16 | CNc1nc(N2CCNCC2)nc2scc(C)c12 [Compound No. 16, 5-Methyl-4-methylamino-2-(1-piperazinyl)thieno[2,3-d]-pyrimidine] | 43.9 | 
17 | CCc1cc2c(NCCN)nc(N3CCNCC3)nc2s1 [Compound No. 66, 4-(2-Aminoethylamino)-6-ethyl-2-(1-piperazinyl)-thieno[2,3-d]pyrimidine] | 32.9 | Inhibitory rate, R'% (platelet aggregation; concentration 3 x 10^-5 g/ml): 100%
